Literature values in US6458790B2, “Substituted piperidines as melanocortin receptor agonists” (Merck & Co., Inc., priority 2000, dated 2002).

What was measured:
[1] = system: men with erectile dysfunction; details: for duration of effect / onset of action: after an oral dose; for share of men/patients in whom effective (adequate response): oral
[2] = system: males with psychogenic erectile dysfunction
[3] = subcutaneous injection formulation

For `CCCc1nn(C)c2c(=O)[nH]c(-c3cc(S(=O)(=O)N4CCN(C)CC4)ccc3OCC)nc12` [Sildenafil], the duration of effect [1] is given as “about 4 hours”, the onset of action [1] is given as 30 to 60 min and the “share of men/patients in whom effective (adequate response)” value [1] is given as “about 70%”.
For `Cc1ccc(N(CC2=NCCN2)c2cccc(O)c2)cc1` [phentolamine], the duration of effect [1] is given as 2 h, the onset of action [1] is given as 5 to 30 min and the “share of men/patients in whom effective (adequate response)” value [1] is given as 35-40%.
In the case of “Ac-Nle-c[Asp-His-DPhe-Arg-Trp-Lys]-NH2 [MT-II]”, the “absorption into the systemic circulation” value ([2]; human, in vivo, po) is given as “not absorbed into the systemic circulation”, the response rate ([2]; injected intramuscularly or subcutaneously) is given as 75% and the duration of action [2, 3] is given as “approximately 2.5 hours”. The “time to onset of erection” value [2, 3] was 10 to 20 min.
